Results from US10607721B2, “High-throughput, multi-omics approach to determine and validate de novo global mechanisms of action for drugs and toxins” (Vanderbilt University, priority 2015, dated 2020).

Experiments:
Format in all cases: cell-based, Human
[1] = system: A549 cells; test: Apoptosis assay (ApoONE, caspase 3/7 activation); details: 50 μM cisplatin
Method: Cell viability and apoptosis were assessed by CellTiter Glo (Promega) and ApoONE (Promega) kits, respectively. Molecular changes were screened using a MALDI-FTICR MS platform.
Human lung carcinoma A549 cells were obtained from ATCC (Manassas, Va.) and cultured in Dulbecco's Modified Eagle's Medium (DMEM, Gibco) with 10% v/v heat-inactivated fetal bovine serum (Atlanta Biologicals) and 1% v/v penicillin/streptomycin (P/S) (Gibco) at 37° C. with 5% CO2 atmosphere. Stable isotope labeling by amino acids in cell culture (SILAC) media were prepared using SILAC DMEM (Thermo Scientific) containing 10% v/v dialyzed heat-inactivated FBS (Fisher), 1% v/v P/S, proline (250 mg/L) (Thermo Scientific), and appropriate light and heavy labeled arginine (84 mg/L), lysine (146 mg/L). […]
At each time point, cell viability and apoptosis were assessed by CellTiter-Glo (Promega) and ApoONE (Promega) kits, respectively. Plates were incubated at 37° C. in a plate reader (BioTek) with data 174 acquisition every 10 min by luminescence (1 s read time, 200 gain) and fluorescence (485 nm excitation, 528 nm emission). […] Cell viability was also assessed using the LIVE/DEAD Viability/Cytotoxicity Kit for mammalian cells (ThermoFisher). […]

[2] = system: A549 cells; test: Molecular screening assay (MALDI FTICR MS, molecular variance score)
Method: After incubation for the respective times, wells were washed 3 times with PBS and stored at −80° C. The effect of different toxin dosage amounts and exposure times on the molecular content of a sample may be evaluated and reported directly for thousands of molecular species based upon the mass spectra that were collected for each of the samples. A comparison of the mass-to-charge (m/z) peak content between spectra from dosed cells and a reference spectrum from a non-dosed control sample delivers a mass spectrometric assessment of toxicity-induced molecular variation. However, seeking a data-driven global comparison instead of focusing on specific molecular species of interest makes the assessment of molecular change between the different experimental conditions very complex and high-dimensional. To determine which dosage amount induces the greatest molecular change, the inventors developed a quick and broad assessment of toxicity-induced molecular variance summarizing the entire recorded mass range. […]
Within each time point (represented by a 24-well plate), seven different dosage conditions were measured: six different toxin dosages and one reference condition (e.g., untreated). Per dosage condition there were nine distinct replicate measurements made: each dosage condition was represented by three replicate wells, from which three technical replicate spectra were measured per well. […]

[3] = system: A549 cells; test: Multi-omics analysis (transcriptome, proteome, phosphoproteome, metabolome)
Method: Samples were analyzed for transcriptome changes by RNA sequencing at the Genomics Services Lab, HudsonAlpha, for proteome changes by label free, SILAC, and phospho-enriched SILAC LC-MS/MS, and metabolome changes by UPLC-IM-MS and data-independent acquisition (MSE) using both hydrophilic-interaction liquid chromatography and reverse phase liquid chromatography.
For proteomic and metabolomic label-free analyses, five sterile indium tin oxide (ITO)-coated glass slides (Delta Technologies) were placed in a tissue culture flask with removable lid (TPP). […] For proteomic analyses, slides were removed and washed 3 times with PBS, placed on dry ice, flash-frozen in liquid nitrogen, and stored at −80° C. prior to lysis. For metabolomics analysis, slides were washed in 50 mM ammonium formate.
For SILAC experiments, A549 cells were cultured in SILAC media for two weeks to ensure isotopic amino acid incorporation (verified by proteomic analysis). […] Following treatment cells were washed 3 times with 4° C. PBS. For phospho-SILAC, cells were washed with 4° C. PBS containing 1 mM sodium orthovanadate.
RNA was isolated using the RNeasy Mini Kit (Qiagen). For each time point, untreated and cisplatin-treated samples were isolated in triplicate and analyzed by the Genomics Services Lab at HudsonAlpha. RNAseq was performed using poly(A) selection on an Illumina HiSeq v4 sequencing platform. Reads were paired-end with a read length of 50 bp and 50 million reads per sample.
Cells were scraped from slides and lysed in 300 μL of 50 mM Tris pH 8, 150 mM NaCl, 1% Nonidet 40, 1 mM EDTA with added HALT Protease Inhibitor Cocktail (Thermo Scientific), centrifuged, and assayed for protein concentration (BCA Protein Assay, Thermo Scientific Pierce) using a SpectraMax M2e Microplate Reader with SoftMax Pro software version 5 (Molecular Devices). Aliquots of 100 μg of protein were acetone precipitated in six times the volume for 2 h at −80° C. Precipitates were washed three times with cold acetone and reconstituted in 10 μL of neat trifluoroethanol (TFE) and 10 μL of 100 mM Tris (pH 8.0). Samples were reduced with 1 μL of 0.5 M Tris(2-carboxyethyl)phosphine hydrochloride (TCEP) for 30 minutes at room temperature and alkylated with 2 μL of 0.5 M IAA for 30 minutes at room temperature in the dark. Samples were diluted with 100 mM Tris (pH 8.0) to obtain a final solution containing 10% TFE. The samples were digested with 2 μg of trypsin (a ratio of 50:1 protein 273 to enzyme) overnight at 37° C. A solution of 60% formic acid (FA) was added to the samples until they reached pH 3. Aliquots of 5 μg of digested sample were desalted using C18 spin tips (Protea) according to the supplied protocol and dried samples were reconstituted in 15 μL of 0.1% FA. Five replicates of cisplatin treated and control (untreated) cells were prepared in parallel.
Samples were analyzed on a Thermo Scientific Orbitrap Fusion Tribrid mass spectrometer in line with a Thermo Scientific Easy-nLC 1000 UHPLC system. Samples, 2 μL, were injected via the autosampler and loaded onto a Thermo Scientific Acclaim PepMap 100 C18 UHPLC column (75 μm×250 mm, 2 μm particle size, 100 Å pore size), with 0.1% FA in water (mobile phase A). Peptides were separated over a 140 minute two-step gradient with initial conditions set to 100% mobile phase A for 5 minutes before ramping to 20% mobile phase B, 0.1% FA in ACN, over 100 minutes and then 32% mobile phase B over 20 minutes. The remainder of the gradient was spent washing at 95% mobile phase B and returning to initial conditions. Eluted peptides were ionized via positive mode nanoelectrospray ionization (nESI) using a Nanospray Flex ion source (Thermo Fisher Scientific). The mass spectrometer was operated using a 3 second top speed data-dependent acquisition mode. Fourier transform mas spectra (FTMS) were collected using 120,000 resolving power, an automated gain control (AGC) target of 200,000, and a maximum injection time of 50 ms. […]

[4] = 50 μM cisplatin for 1, 6, 24 and 48 h

N.N.[Cl][Pt][Cl] [cisplatin]
caspase activation over time [1]: ceased after 48 h
time of maximal caspase activation [1]: 24 h
earliest time at which cisplatin-induced toxicity is measurable ([2]; 50 μM): ≤ 1 h
optimal dose (maximum response in physiological and molecular screen, cell viability >50%) ([2]; exposure 1 and 6 h molecular screen, 24 h caspase assay): 50 μM
BAD phosphorylation (pSer75 at 48 h; pSer118 at 24 h and 48 h) ([3]; 50 μM cisplatin): increased
share of unique detected species significantly changed [3, 4]: 24%
unique species significantly changed [3, 4]: 13,483
phosphorylated ERK1 and/or ERK2 (pThr202/pTyr204; pThr185/pTyr187) ([3]; 50 μM cisplatin, 1, 6, 24, 48 h): increased at each time point
ATP1A1 peptides ([3]; 50 μM cisplatin, 6 and 24 h): decreased significantly
CUL4B C-terminal peptide ([3]; 50 μM cisplatin, 1 h): increased
Ncx1 transcript ([3]; 50 μM cisplatin, 6 h): significant decrease
BAK1 ([3]; 50 μM cisplatin, 24 h): increased
CASP9 transcript ([3]; 50 μM cisplatin, 24 h): downregulation
phosphorylated mTOR at pS1166 ([3]; 50 μM cisplatin, 24 h): increased
HUWE1 abundance ([3]; 50 μM cisplatin, 48 h): decreased
p53 pSer392 ([3]; 50 μM cisplatin, beginning at 24 h): increased significantly
p53 pSer313, pSer314 and/or pSer315 ([3]; 50 μM cisplatin, starting at 6 h): increased significantly
estrogen species (E1, E2) ([3]; 50 μM cisplatin, E1 up at 1 h, E1 and E2 up at 6 h, decreased by 24 h): transiently increased
BAX, CYCS, APAF1 and CASP3 transcripts ([3]; 50 μM cisplatin, no proteomic abundance changes): transcriptional upregulation
